Measured values taken from patent publication US12091425B2 (AMGEN INC., priority 2016, dated 2024).

Assays:
[1] = biological target: T1, Mcl-1/Bim interaction, recombinant human Mcl-1 (171-327) (Homo sapiens, UniProt Q07820); test: Cell free Mcl-1: Bim Affinity Assay (Mcl-1 HTRF); type: binding; settings: TR-FRET, 0.1 nM Mcl-1 (171-327), 0.05 nM biotin-Bim (51-76)
T1 construct: made in house
How it was run: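 Displacement of biotinylated Bim 51-76 peptide is followed by TR-FRET. Incubation runs overnight. Duplicate points are fitted with a four-parameter sigmoid to yield IC50.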

[2] = system: OPM-2 human multiple myeloma cell line; test: Cell Viability Assay (OPM-2 10 FBS); type: cell-based; settings: Homo sapiens, OPM-2, 16 h, OPM-2 cells, 16 h, CellTiter-Glo
How it was run: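 ATP-based luminescence (CellTiter-Glo) measured after a 16 h compound treatment of OPM-2 cells seeded at 3000 cells/well in 10% FBS medium. IC50 values derived by 4-parameter logistic fitting of serial dilutions.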

T1 sequence (Q07820 171-327): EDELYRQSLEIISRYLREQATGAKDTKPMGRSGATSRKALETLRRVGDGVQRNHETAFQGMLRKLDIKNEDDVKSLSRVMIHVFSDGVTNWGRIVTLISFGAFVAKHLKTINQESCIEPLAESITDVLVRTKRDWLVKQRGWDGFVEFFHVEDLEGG

SMILES | IC50 [1] [nM] | IC50 [2] [nM]
CO[C@H]1/C=C/[C@H](CCO)C[C@@H](C)S(=O)(=O)NC(=O)c2ccc3c(c2)N(C[C@@H]2CC[C@H]21)C[C@@]1(CCCc2cc(Cl)ccc21)CO3 [Example 202, (1S,3′R,6′R,7′S,8′E,10′R,12′R)-6-chloro-10′-(2-hydroxyethyl)-7′-methoxy-12′-methyl-3,4-dihydro-2H,15′H-spiro[naphthalene-1,22′-[20]oxa[13]thia[1,14]diazatetracyclo[14.7.2.0^3,6.0^19,24]pentacosa [8,16,18,24]tetraen]-15′-one 13′,13′-dioxide] | 0.218 | 566
CO[C@H]1/C=C/[C@H](CC#N)C[C@@H](C)S(=O)(=O)NC(=O)c2ccc3c(c2)N(C[C@@H]2CC[C@H]21)C[C@@]1(CCCc2cc(Cl)ccc21)CO3 [Example 203, ((1S,3′R,6′R,7′S,8′E,10′R,12′R)-6-chloro-7′-methoxy-12′-methyl-13′,13′-dioxido-15′-oxo-3,4-dihydro-2H-spiro[naphthalene-1,22′-[20]oxa[13]thia[1,14]diazatetracyclo[14.7.2.0^3,6.0^19,24]pentacosa [8,16,18,24]tetraen]-10′-yl)acetonitrile] | 0.366 | 2790
COCC[C@H]1/C=C/[C@H](OC)[C@@H]2CC[C@H]2CN2C[C@@]3(CCCc4cc(Cl)ccc43)COc3ccc(cc32)C(=O)NS(=O)(=O)[C@H](C)C1 [Example 204, (1S,3′R,6′R,7′S,8′E,10′R,12′R)-6-chloro-7′-methoxy-10′-(2-methoxyethyl)-12′-methyl-3,4-dihydro-2H,15′H-spiro[naphthalene-1,22′-[20]oxa[13]thia[1,14]diazatetracyclo[14.7.2.0^3,6.0^19,24]pentacosa [8,16,18,24]tetraen]-15′-one 13′,13′-dioxide] | 0.732 | 686
CCO[C@@H]1/C=C/CCCS(=O)(=O)NC(=O)c2ccc3c(c2)N(C[C@@H]2CC[C@H]21)C[C@@]1(CCCc2cc(Cl)ccc21)CO3 [Example 209, (1S,3′R,6′R,7′R,8′E)-6-chloro-7′-ethoxy-3,4-dihydro-2H,15′H-spiro[naphthalene-1,22′-[20]oxa[13]thia[1,14]diazatetracyclo[14.7.2.0^3,6.0^19,24]pentacosa [8,16,18,24]tetraen]-15′-one 13′,13′-dioxide] | 5.25 | 5370
COCCO[C@@H]1/C=C/CCCS(=O)(=O)NC(=O)c2ccc3c(c2)N(C[C@@H]2CC[C@H]21)C[C@@]1(CCCc2cc(Cl)ccc21)CO3 [Example 210, (1S,3′R,6′R,7′R,8′E)-6-chloro-7′-(2-methoxyethoxy)-3,4-dihydro-2H,15′H-spiro[naphthalene-1,22′-[20]oxa[13]thia[1,14]diazatetracyclo[14.7.2.0^3,6.0^19,24]pentacosa [8,16,18,24]tetraen]-15′-one 13′,13′-dioxide] | 1.59 | 1530
CN(C)C(=O)CCO[C@@H]1/C=C/CCCS(=O)(=O)NC(=O)c2ccc3c(c2)N(C[C@@H]2CC[C@H]21)C[C@@]1(CCCc2cc(Cl)ccc21)CO3 [Example 211, 3-(((1S,3′R,6′R,7′R,8′E)-6-chloro-13′,13′-dioxido-15′-oxo-3,4-dihydro-2H-spiro[naphthalene-1,22′-[20]oxa[13]thia[1,14]diazatetracyclo[14.7.2.0^3,6.0^19,24]pentacosa [8,16,18,24]tetraen]-7′-yl)oxy)-N,N-dimethylpropanamide] | 1.11 | 2370
CN(C)CCNC(=O)CO[C@@H]1/C=C/CCCS(=O)(=O)NC(=O)c2ccc3c(c2)N(C[C@@H]2CC[C@H]21)C[C@@]1(CCCc2cc(Cl)ccc21)CO3 [Example 212, 2-(((1S,3′R,6′R,7′R,8′E)-6-chloro-13′,13′-dioxido-15′-oxo-3,4-dihydro-2H-spiro[naphthalene-1,22′-[20]oxa[13]thia[1,14]diazatetracyclo[14.7.2.0^3,6.0^19,24]pentacosa [8,16,18,24]tetraen]-7′-yl)oxy)-N-(2-(dimethylamino)ethyl)acetamide] | 2.96 | 18200
O=C1NS(=O)(=O)CCC/C=C/[C@@H](OCCN2CCOCC2)[C@@H]2CC[C@H]2CN2C[C@@]3(CCCc4cc(Cl)ccc43)COc3ccc1cc32 [Example 213, (1S,3′R,6′R,7′R,8′E)-6-chloro-7′-(2-(4-morpholinyl)ethoxy)-3,4-dihydro-2H,15′H-spiro[naphthalene-1,22′-[20]oxa[13]thia[1,14]diazatetracyclo[14.7.2.0^3,6.0^19,24]pentacosa [8,16,18,24]tetraen]-15′-one 13′,13′-dioxide] | 1.08 | 835
Cc1noc(C)c1CO[C@@H]1/C=C/CCCS(=O)(=O)NC(=O)c2ccc3c(c2)N(C[C@@H]2CC[C@H]21)C[C@@]1(CCCc2cc(Cl)ccc21)CO3 [Example 214, (1S,3′R,6′R,7′R,8′E)-6-chloro-7′-((3,5-dimethyl-4-isoxazolyl)methoxy)-3,4-dihydro-2H,15′H-spiro[naphthalene-1,22′-[20]oxa[13]thia[1,14]diazatetracyclo[14.7.2.0^3,6.0^19,24]pentacosa [8,16,18,24]tetraen]-15′-one 13′,13′-dioxide] | 12.3 | 2280
Cn1cnc(CO[C@@H]2/C=C/CCCS(=O)(=O)NC(=O)c3ccc4c(c3)N(C[C@@H]3CC[C@H]32)C[C@@]2(CCCc3cc(Cl)ccc32)CO4)n1 [Example 215, (1S,3′R,6′R,7′R,8′E)-6-chloro-7′-((1-methyl-1H-1,2,4-triazol-3-yl)methoxy)-3,4-dihydro-2H,15′H-spiro[naphthalene-1,22′-[20]oxa[13]thia[1,14]diazatetracyclo[14.7.2.0^3,6.0^19,24]pentacosa [8,16,18,24]tetraen]-15′-one 13′,13′-dioxide] | 1.32 | 8740
O=C1NS(=O)(=O)CCC/C=C/[C@@H](OCc2nccs2)[C@@H]2CC[C@H]2CN2C[C@@]3(CCCc4cc(Cl)ccc43)COc3ccc1cc32 [Example 216, (1S,3′R,6′R,7′R,8′E)-6-chloro-7′-(1,3-thiazol-2-ylmethoxy)-3,4-dihydro-2H,15′H-spiro[naphthalene-1,22′-[20]oxa[13]thia[1,14]diazatetracyclo[14.7.2.0^3,6.0^19,24]pentacosa [8,16,18,24]tetraen]-15′-one 13′,13′-dioxide] | 9.77 | 26200
CCOC(=O)CO[C@@H]1/C=C/CCCS(=O)(=O)NC(=O)c2ccc3c(c2)N(C[C@@H]2CC[C@H]21)C[C@@]1(CCCc2cc(Cl)ccc21)CO3 [Example 217, ethyl(((1S,3′R,6′R,7′R,8′E)-6-chloro-13′,13′-dioxido-15′-oxo-3,4-dihydro-2H-spiro[naphthalene-1,22′-[20]oxa[13]thia[1,14]diazatetracyclo[14.7.2.0^3,6.0^19,24]pentacosa [8,16,18,24]tetraen]-7′-yl)oxy)acetate] | 3.81 | 2660
O=C(O)CO[C@@H]1/C=C/CCCS(=O)(=O)NC(=O)c2ccc3c(c2)N(C[C@@H]2CC[C@H]21)C[C@@]1(CCCc2cc(Cl)ccc21)CO3 [Example 218, (((1S,3′R,6′R,7′R,8′E)-6-chloro-13′,13′-dioxido-15′-oxo-3,4-dihydro-2H-spiro[naphthalene-1,22′-[20]oxa[13]thia[1,14]diazatetracyclo[14.7.2.0^3,6.0^19,24]pentacosa [8,16,18,24]tetraen]-7′-yl)oxy)acetic acid] | 0.216 | 3670
CN(C)S(=O)(=O)CCO[C@@H]1/C=C/CCCS(=O)(=O)NC(=O)c2ccc3c(c2)N(C[C@@H]2CC[C@H]21)C[C@@]1(CCCc2cc(Cl)ccc21)CO3 [Example 219, 2-(((1S,3′R,6′R,7′R,8′E)-6-chloro-13′,13′-dioxido-15′-oxo-3,4-dihydro-2H-spiro[naphthalene-1,22′-[20]oxa[13]thia[1,14]diazatetracyclo[14.7.2.0^3,6.0^19,24]pentacosa [8,16,18,24]tetraen]-7′-yl)oxy)-N,N-dimethylethanesulfonamide] | 2.4 | 1830
O=C1NS(=O)(=O)CCC/C=C/[C@@H](OCCO)[C@@H]2CC[C@H]2CN2C[C@@]3(CCCc4cc(Cl)ccc43)COc3ccc1cc32 [Example 220, (1S,3′R,6′R,7′R,8′E)-6-chloro-7′-(2-hydroxyethoxy)-3,4-dihydro-2H,15′H-spiro[naphthalene-1,22′-[20]oxa[13]thia[1,14]diazatetracyclo[14.7.2.0^3,6.0^19,24]pentacosa [8,16,18,24]tetraen]-15′-one 13′,13′-dioxide] | 1.99 | 2660
O=C1NS(=O)(=O)CCCC[C@@H](O)[C@@H]2CC[C@H]2CN2C[C@@]3(CCCc4cc(Cl)ccc43)COc3ccc1cc32 [Example 222, (1S,3′R,6′R,7′R)-6-chloro-7′-hydroxy-3,4-dihydro-2H,14′H-spiro[naphthalene-1,21′-[19]oxa[12]thia[1,13]diazatetracyclo[13.7.2.0^3,6.0^18,23]tetracosa [15,17,23]trien]-14′-one 12′,12′-dioxide] | 9.08 | 30800
O=C1NS(=O)(=O)CCCCCC[C@@H](O)[C@@H]2CC[C@H]2CN2C[C@@]3(CCCc4cc(Cl)ccc43)COc3ccc1cc32 [Example 228, (1S,3′R,6′R,7′R)-6-chloro-7′-hydroxy-3,4-dihydro-2H,16′H-spiro[naphthalene-1,23′-[21]oxa[14]thia[1,15]diazatetracyclo[15.7.2.0^3,6.0^20,25]hexacosa[17,19,25]trien]-16′-one 14′,14′-dioxide] | 13.1 | 23100
CO[C@@H]1/C=C/CCCCS(=O)(=O)NC(=O)c2ccc3c(c2)N(C[C@@H]2CC[C@H]21)C[C@@]1(CCCc2cc(Cl)ccc21)CO3 [Example 229, (1S,3′R,6′R,7′R,8′E)-6-chloro-7′-methoxy-3,4-dihydro-2H,16′H-spiro[naphthalene-1,23′-[21]oxa[14]thia[1,15]diazatetracyclo[15.7.2.0^3,6.0^20,25]hexacosa[8,17,19,25]tetraen]-16′-one 14′,14′-dioxide] | 1.62 | 1720
